Data taken from patent US20100119529A1, “ELASTIN-LIKE POLYMER DELIVERY VEHICLES” (priority 2006, published 2010).
pIC50: −log10 of the molar value.

What was measured:
[1] = system: MCF-7 human breast cancer cells; test: Cytotoxicity test, XTT assay; type: cell-based; parameters: Average (XTT metabolic signal): unit not given here; details: for pIC50: 74 hr incubation, XTT
Experimental: MCF-7 human breast cancer cells (ATCC HTB-22) were plated in 96-well plates at an initial density of 5000 cells per well in 90 μL of RMPI 1640 supplemented with 10% fetal bovine serum, 100 IU penicillin, and 100 μg/mL streptomycin, 2 mM L-glutamine, and maintained at 37° C. and 5% CO2 atmosphere. After 24 hr, stock solutions of 17-GAOH in DMSO and GA-(VKG)8ELP1-120 were diluted 10-fold with growth media and added to wells (6 wells) as […] (1% v/v final DMSO concentration). The cells were incubated with the compounds for 74 hr and the metabolic rate was determined using an XTT™ assay kit (Sigma) according to the manufacturer's instructions. The concentrations inhibiting cell growth by 50% (IC50) were determined by fixed Hill slope regression with SIGMA PLOT™ 2004 (Systat Software, Inc.).

mouse mammary tumors = details: 43° C. hyperthermia; cited from earlier work

Row | Structure (SMILES) | pIC50 ([1]; test 1) | Average (XTT metabolic signal) ([1]; test 1, final concentration 0.1 nM) | Average (XTT metabolic signal) ([1]; test 1, final concentration 1 nM) | Average (XTT metabolic signal) ([1]; test 1, final concentration 10 nM) | Average (XTT metabolic signal) ([1]; test 1, final concentration 100 nM) | Average (XTT metabolic signal) ([1]; test 1, final concentration 1,000 nM) | Average (XTT metabolic signal) ([1]; test 1, final concentration 10,000 nM) | pIC50 ([1]; test 2) | Average (XTT metabolic signal) ([1]; test 2, final concentration 50 nM) | Average (XTT metabolic signal) ([1]; test 2, final concentration 100 nM) | Average (XTT metabolic signal) ([1]; test 2, final concentration 250 nM) | Average (XTT metabolic signal) ([1]; test 2, final concentration 500 nM) | Average (XTT metabolic signal) ([1]; test 2, final concentration 1,000 nM) | Average (XTT metabolic signal) ([1]; test 2, final concentration 2,000 nM) | increase of thermal enhancement ratio (TER) (mouse mammary tumors)
1 | CO[C@H]1/C=C\C=C(/C)C(=O)NC2=CC(=O)C(NCCO)=C(C[C@@H](C)C[C@H](OC)[C@H](O)[C@@H](C)/C=C(\C)[C@@H]1OC(N)=O)C2=O [17-HEA-DMGA, 17-β-hydroxyethylamino-17-demethoxygeldanamycin] | 6.07 | 1158 | 1288 | 1274 | 1588 | 344 | 114 | 6.14 | 788.5 | 999.7 | 774.3 | 515.0 | 297.5 | 46.9 | –
2 | N.N.[Cl][Pt][Cl] [Cisplatin] | – | – | – | – | – | – | – | – | – | – | – | – | – | – | 1.4-5.0 fold
